Read-outs that look alike come from different tables or passages of the source.
What was measured:
[1] = system: occlusion of Platelet Rich Plasma (PRP)
Experimental: The T-TAS® instrument was prepared for use according to the manufacturer's instructions. AR Chips (Diapharma Cat. #TC0101) and AR Chip Calcium Corn Trypsin Inhibitor (CaCTI; Diapharma Cat. #TR0101) were warmed to room temperature. […] The sample was loaded and run on the T-TAS® according to the manufacturer's instructions.
The effect of cangrelor and ticagrelor on occlusion time of Platelet Rich Plasma (PRP) with and without FDPDs was assessed using the T-TAS® assay. The concentrations of the agents were as follows: cangrelor at 1 μM, ticagrelor at 500 ng/mL, FDPDs at 150 k/μL, and ADP at 2 μM. […] The number of trials per each assay is listed as the “(n=_)” values.

[2] = cited from earlier work
[3] = system: thrombin generation in platelet rich plasma; assay: Thrombin generation assay in dabigatran-treated PRP; format: cell-based, human; details: dabigatran (100 ng/mL), PRP reagent; 18.89 untreated
Experimental: • (1) Open CAT software; set up instrument; and prepare PRP reagent (including Tissue Factor and some phospholipids), calibrator, and fluoro-buffer according to manufacturer guidelines. • (2) Thaw warfarin or control plasma in 37° C. water bath for 5 minutes. • (3) Rehydrate thrombosomes with cell culture grade water for 10 minutes then dilute with Control Buffer to double target concentration. • (4) For each sample, combine 1:1 volumes of Control Buffer with or without thrombosomes and plasma. • (5) Using a multichannel pipette, add 20 μL of PRP reagent to each well. • (6) Add 80 μL of sample per well.

[4] = system: NOD-SCID mice; assay: Tail snip bleeding time in clopidogrel-treated mice; format: in vivo, mouse; details: clopidogrel 5 mg/kg for 3 days, untreated 758.6+/−623.4
Experimental: Mice were treated with clopidogrel at 5 mg/kg for 3 days. The mice were anesthetized, the tail end was snipped off at 1 mm diameter and submerged in warm saline and time to clot recorded. Animals were syringe injected, into a vein or artery, with saline or 1.6×10^9/kg of FDPDs, at the same time the tail was snipped, and the tail snip trial commenced. The time from tail snip to tail stop bleeding was recorded by visual inspection of cessation of blood loss.

[5] = system: New Zealand White Rabbits; assay: Ear bleed time in clopidogrel-treated rabbits; format: in vivo, rabbit; details: clopidogrel 23 mg/kg for 5 days, untreated 87.1+/−18.2
Experimental: Rabbits were treated with clopidogrel at 23 mg/kg for 5 days. The rabbits were anesthetized, the ear was bled and time to clot recorded. Animals were treated, injected into a vein or artery, with saline or 1.6×10^9/kg of human FDPDs, at the same time the ear was bled, and the ear bleed trial commenced. The time from ear bleed to stop bleeding was recorded by visual inspection.

[6] = system: thrombus formation in whole blood; assay: T-TAS AR chip, rivaroxaban-anticoagulated whole blood; format: cell-based, human; details: 9 uM dose (a pharmacological dose)
Experimental: Rivaroxaban (sometimes herein called Riv) dose-response in whole blood was measured using T-TASR. An AR chip (Collagen+TF) was used. T-TAS® assays were performed according to Example 3. The donor platelets were used at 307 k/μL.
Thrombosomes were prepared consistent with the procedures described in U.S. Pat. No. 8,486,617 (such as, e.g., Examples 1-5) and U.S. Pat. No. 8,097,403 (such as, e.g., Examples 1-3), and rehydrated by addition of sterile water. T-TAS® assays were run according to Example 3 using 3 μM rivaroxaban and different concentrations of thrombosomes (FIG. 10A, Table 8). The ‘No Riv’ vertical line indicates the approximate occlusion time of a sample with no added rivaroxaban.

[7] = system: thrombus formation in GK PPP; assay: T-TAS AR chip, George King Platelet Poor Plasma with or without GPRP; format: biochemical, human; details: GK PPP + 1 mM GPRP (No Tsomes)
Experimental: In the Total Thrombus-formation Analysis System (T-TAS®, FUJIMORI KOGYO CO., LTD), the sample is forced through collagen-coated microchannels using mineral oil. Changes in pressure are used to assess thrombus formation. The Occlusion Start Time is time it takes to reach Δ10 kPa, and the Occlusion Time=time it takes to each Δ80 kPa using an AR chip (Zacros Item No, TC0101).
The effect of GPRP (1 mM) on occlusion activity was also assayed.

[8] = system: time to clot in pooled normal plasma; assay: Activated clotting time (ACT), heparin and protamine in pooled normal plasma; format: biochemical, human; details: heparin titration
Experimental: This experiment assessed how clinical proportions of Heparin and Protamine affect FDPD function. FDPDs were prepared according to the procedure in Example 18. An Activating Clotting Time (ACT) assay was performed to measure time to clot and TGA was performed to measure thrombin generation. An initial Heparin titration run was performed using ACT to find the minimum Heparin dose needed to reach abnormal clot time.
Activated clotting time was measured using pooled normal plasma with heparin (H) and protamine (P) as labeled on the x-axis; ½ P, P, and 3/2 P represent protamine doses of 4, 8, and 12 μg/ml, respectively. FDPDs, (referred to as “Tsomes” in FIG. 33) were added at 10, 25 or 50 K/μl. […] “K” in the legend stands for 10^3 FDPDS. All samples were run in duplicate. N=2. The experiment was repeated on separate days to improve statistical relevance.

[9] = ADP (2 μM) stimulated PRP, cangrelor at 1 μM (n=4) or ticagrelor at 500 ng/mL (n=5), PRP alone 19.5±1.5

Molecule: CC(=O)Oc1ccccc1C(=O)O [aspirin, Acetylsalicylic acid]
- occlusion time ([1]; PRP at 30K/μL, aspirin at 500 μM, PRP alone 25:56): > 30 min
- peak concentration ([2]; single 500 mg dose IV): 500 µM
- peak concentration ([2]; single 500 mg dose orally): 44 µM

Molecule: CCCSc1nc(N[C@@H]2C[C@H]2c2ccc(F)c(F)c2)c2nnn([C@@H]3C[C@H](OCCO)[C@@H](O)[C@H]3O)c2n1 [ticagrelor]
- occlusion time [1, 9]: 28.0 ± 3.0 min

Molecule: [H]/N=C(/N)c1ccc(NCc2nc3cc(C(=O)N(CCC(=O)O)c4ccccn4)ccc3n2C)cc1 [dabigatran]
- Time to peak [3]: 34.67 min

Molecule: COC(=O)[C@H](c1ccccc1Cl)N1CCc2sccc2C1 [clopidogrel]
- bleed time [4]: 1661 ± 257.9 s
- bleed time [5]: 206.8 ± 104.2 s

Molecule: O=C(NC[C@H]1CN(c2ccc(N3CCOCC3=O)cc2)C(=O)O1)c1ccc(Cl)s1 [Rivaroxaban]
- occlusion and thrombus formation [6]: inhibits occlusion but not all thrombus formation

Molecule: CSCCNc1nc(SCCC(F)(F)F)nc2c1ncn2[C@@H]1O[C@H](COP(=O)(O)OP(=O)(O)C(Cl)(Cl)P(=O)(O)O)[C@@H](O)[C@H]1O [cangrelor]
- occlusion time [1, 9]: 28.0 ± 3.0 min

Molecule: GPRP
- Area Under Curve [7]: 52.43
- Occlusion Speed [7]: 0 kPa/min

Molecule: Heparin
- minimum Heparin dose needed to reach abnormal clot formation [8]: 0.8 U/mL

Source: patent US20250177450A1, “METHODS FOR ADMINISTERING FREEZE-DRIED PLATELET DERIVATIVE COMPOSITIONS TO SUBJECTS TREATED WITH A FACTOR XI INHIBITOR” (Cellphire, Inc., priority 2021, published 2025)
